{
  "source": "patent US8691571B1",
  "about": "“Extending tissue preservation” (University of South Florida, priority 1998, dated 2014)",
  "origin": "cited, not measured here",
  "system": "rabbit cornea",
  "conditions": "addition to storage medium; without changing metabolic activity for at least 11 days",
  "data": [
    {"smiles": "CC(O)CC(=O)O", "note": "(stereo not drawn) [beta-hydroxy butyrate]", "values": [
      {"measurement": "diminished lactic acid concentration of rabbit cornea", "result": 85, "unit": "%"}
    ]}
  ]
}
